Biological target: DNA polymerase theta (Polθ) (Homo sapiens, UniProt O75417)
Assay: Nano-luciferase MMEJ reporter assay in HEK-293 cells
Format: cell-based

DNA polymerase theta (Polθ), sequence (O75417 whole entry): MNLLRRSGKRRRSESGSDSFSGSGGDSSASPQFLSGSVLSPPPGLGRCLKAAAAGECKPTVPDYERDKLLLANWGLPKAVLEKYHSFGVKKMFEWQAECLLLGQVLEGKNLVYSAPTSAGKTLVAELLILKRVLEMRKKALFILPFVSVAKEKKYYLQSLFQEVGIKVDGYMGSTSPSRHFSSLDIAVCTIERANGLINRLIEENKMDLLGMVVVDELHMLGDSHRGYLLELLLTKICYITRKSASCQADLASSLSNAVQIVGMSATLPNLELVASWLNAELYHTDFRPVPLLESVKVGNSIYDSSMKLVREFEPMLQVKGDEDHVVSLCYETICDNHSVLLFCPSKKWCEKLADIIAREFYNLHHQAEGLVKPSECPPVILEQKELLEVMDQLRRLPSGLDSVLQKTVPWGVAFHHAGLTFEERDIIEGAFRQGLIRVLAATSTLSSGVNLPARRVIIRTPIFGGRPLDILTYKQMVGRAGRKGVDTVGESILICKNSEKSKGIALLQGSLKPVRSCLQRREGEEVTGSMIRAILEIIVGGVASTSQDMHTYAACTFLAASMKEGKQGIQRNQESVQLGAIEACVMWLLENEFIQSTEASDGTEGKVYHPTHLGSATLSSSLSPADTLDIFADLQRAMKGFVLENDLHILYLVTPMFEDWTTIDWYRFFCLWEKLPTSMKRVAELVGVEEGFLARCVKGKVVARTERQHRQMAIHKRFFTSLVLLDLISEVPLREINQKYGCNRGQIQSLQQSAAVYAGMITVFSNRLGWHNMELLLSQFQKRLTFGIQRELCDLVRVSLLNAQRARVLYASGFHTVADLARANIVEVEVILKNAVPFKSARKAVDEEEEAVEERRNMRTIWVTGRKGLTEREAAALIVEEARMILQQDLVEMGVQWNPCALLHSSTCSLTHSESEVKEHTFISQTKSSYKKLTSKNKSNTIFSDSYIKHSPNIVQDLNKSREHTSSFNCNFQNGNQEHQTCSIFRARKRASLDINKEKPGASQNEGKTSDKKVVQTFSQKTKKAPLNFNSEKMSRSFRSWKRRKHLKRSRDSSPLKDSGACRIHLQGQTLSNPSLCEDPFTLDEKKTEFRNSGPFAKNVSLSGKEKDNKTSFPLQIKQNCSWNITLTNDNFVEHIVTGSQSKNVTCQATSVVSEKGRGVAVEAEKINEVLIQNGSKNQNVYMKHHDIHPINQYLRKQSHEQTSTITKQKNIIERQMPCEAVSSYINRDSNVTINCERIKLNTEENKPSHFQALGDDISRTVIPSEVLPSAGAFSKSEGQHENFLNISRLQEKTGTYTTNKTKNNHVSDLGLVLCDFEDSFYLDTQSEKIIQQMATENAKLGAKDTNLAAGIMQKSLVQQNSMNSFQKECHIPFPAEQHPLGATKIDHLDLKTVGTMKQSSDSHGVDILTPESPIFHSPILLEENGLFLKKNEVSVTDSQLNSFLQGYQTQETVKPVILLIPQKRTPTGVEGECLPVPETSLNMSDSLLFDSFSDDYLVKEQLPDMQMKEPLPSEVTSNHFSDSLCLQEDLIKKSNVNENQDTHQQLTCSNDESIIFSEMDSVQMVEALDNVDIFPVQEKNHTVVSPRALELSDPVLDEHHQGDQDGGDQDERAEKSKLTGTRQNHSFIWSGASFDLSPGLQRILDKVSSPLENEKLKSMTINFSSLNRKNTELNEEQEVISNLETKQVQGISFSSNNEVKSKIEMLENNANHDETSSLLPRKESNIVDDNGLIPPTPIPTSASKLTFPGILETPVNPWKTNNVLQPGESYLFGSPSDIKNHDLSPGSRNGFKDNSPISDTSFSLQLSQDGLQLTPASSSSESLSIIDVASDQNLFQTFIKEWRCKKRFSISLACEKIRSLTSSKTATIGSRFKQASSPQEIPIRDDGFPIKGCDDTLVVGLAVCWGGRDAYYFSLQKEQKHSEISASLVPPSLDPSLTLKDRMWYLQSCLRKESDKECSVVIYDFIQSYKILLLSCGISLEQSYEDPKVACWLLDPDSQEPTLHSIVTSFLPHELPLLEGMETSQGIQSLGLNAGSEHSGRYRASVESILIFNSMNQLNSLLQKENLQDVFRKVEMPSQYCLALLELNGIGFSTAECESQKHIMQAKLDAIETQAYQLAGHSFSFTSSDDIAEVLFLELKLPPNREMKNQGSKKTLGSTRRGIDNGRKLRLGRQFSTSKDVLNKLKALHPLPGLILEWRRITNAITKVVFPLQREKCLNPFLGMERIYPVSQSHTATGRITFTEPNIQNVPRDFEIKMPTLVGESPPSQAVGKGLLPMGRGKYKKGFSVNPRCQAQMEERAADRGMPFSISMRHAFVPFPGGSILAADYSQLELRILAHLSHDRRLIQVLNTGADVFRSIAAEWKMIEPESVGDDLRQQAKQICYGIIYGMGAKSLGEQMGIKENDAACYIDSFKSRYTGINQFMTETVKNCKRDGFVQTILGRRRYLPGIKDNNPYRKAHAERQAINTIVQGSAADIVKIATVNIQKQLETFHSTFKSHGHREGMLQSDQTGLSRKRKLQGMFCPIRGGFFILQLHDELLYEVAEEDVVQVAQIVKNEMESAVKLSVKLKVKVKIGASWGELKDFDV

ART899
IC50: ~180 nM

Source: publication PMC10102842 (Clinical cancer research : an official journal of the …, 2023)
